Measured values reported in patent US8202856B2 (Merck Serono SA, priority 2007, dated 2012).

What was measured:
S1P1 receptor = S1P1 receptor (Homo sapiens, UniProt P21453); experiment: 35S-GTPγS binding, membranes from CHO cells expressing S1P1; assay type: biochemical; conditions: CHO cell membranes expressing S1P1
How it was run: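 Membranes (1–10 μg) from CHO cells expressing the receptor were incubated with compound in 20 mM HEPES pH 7.4, 10 mM MgCl2, 140 mM NaCl, 1.7 μM GDP, saponin and 0.2% BSA. [35S]GTPγS (added at 1.5 nM) was then bound for 60 min at 30 °C. Membrane-bound radioactivity, averaged over triplicates, is expressed relative to S1P activation (n=2).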

S1P3 receptor = S1P3 receptor (Homo sapiens, UniProt Q99500); experiment: 35S-GTPγS binding, membranes from CHO cells expressing S1P3; assay type: biochemical; conditions: CHO cell membranes expressing S1P3
Chain of S1P3 receptor (Q99500 whole entry): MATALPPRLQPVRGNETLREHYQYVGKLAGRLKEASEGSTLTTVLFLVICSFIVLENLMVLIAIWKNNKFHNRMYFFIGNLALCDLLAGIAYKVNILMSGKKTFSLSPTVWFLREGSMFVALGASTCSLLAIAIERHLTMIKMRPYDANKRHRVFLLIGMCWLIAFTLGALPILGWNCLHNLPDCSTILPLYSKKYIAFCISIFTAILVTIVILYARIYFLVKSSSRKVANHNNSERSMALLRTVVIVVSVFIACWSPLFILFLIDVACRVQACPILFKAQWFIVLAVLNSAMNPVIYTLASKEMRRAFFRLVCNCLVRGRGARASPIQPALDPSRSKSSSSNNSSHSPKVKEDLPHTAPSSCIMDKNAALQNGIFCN
Method: Receptor binding assay: Membranes were prepared from CHO cells expressing S1P1 or S1P3 for use in ligand and 35S-GTPTS binding studies. Cells were suspended in 50 mM TRIS, pH 7.4, 2 mM EDTA, 250 mM Sucrose (buffer A) and 1× Complete protease inhibitor cocktail (Roche), and disrupted at 4° C. by nitrogen decompression using a cell disruption bomb (Parr Instrument). Following centrifugation at 1000 RPM for 10 min at 4° C., the supernatant was suspended in buffer A and centrifuged again at 19000 RPM for 60 min at 4° C. The pellet was then suspended in 10 mM HEPES, pH 7.4, 1 mM EDTA, 250 mM Sucrose (Buffer B), and 1× Complete EDTA-free protease inhibitor cocktail and homogenized using a potter. Membranes were flash frozen in liquid nitrogen and stored at −80° C. [33P]sphingosine 1-phosphate (3000 Ci/mmol; American Radiolabeled Chemicals, Inc.) was added to test compounds in DMSO. Membranes and WGA SPA beads (GE Healthcare) were added to give a final volume of 100 μl in 96-well plates with assay concentrations of […] [33P]sphingosine 1-phosphate (respectively for S1P1 or S1P3), 50 mM HEPES, pH 7.5, 5 mM MgCl2, 100 mM NaCl, 0.4% fatty acid-free BSA, 1-5 μg/well of proteins and 100 μg/well of WGA SPA beads. Binding was performed for 60 min at room temperature on a shaker and bound radioactivity was measured on a PerkinElmer 1450 MicroBeta counter. Specific binding was calculated by subtracting remaining radioactivity in the presence of 1000-fold excess of unlabeled S1P. Binding data were analyzed using the GraphPad Prism program.
Measurements of ^35S-GTPγS Binding: Membranes (1 to 10 μg protein) prepared as described above, were incubated in 96-well Scintiplates (PerkinElmer) with test compounds diluted in DMSO, in 180 μl of 20 mM HEPES, pH 7.4, 10 mM MgCl2, 2 μg/well Saponin, 0.2% fatty acid free BSA (Assay buffer), 140 mM NaCl and 1.7 μM GDP. The assay was initiated with the addition of 20 μl of 1.5 nM [35S]-GTPγS (1100 Ci/mmol; GE Healthcare) in assay buffer. After 60 min incubation at 30° C. on a shaker, plates were centrifuged for 10 min at 2000 RPM. Supernatant was discarded and membrane bound radioactivity was measured on a PerkinElmer 1450 MicroBeta counter. Triplicate samples were averaged and expressed as response relative to S1P activation in absence of compound (n=2).

Chain of S1P1 receptor (P21453 whole entry): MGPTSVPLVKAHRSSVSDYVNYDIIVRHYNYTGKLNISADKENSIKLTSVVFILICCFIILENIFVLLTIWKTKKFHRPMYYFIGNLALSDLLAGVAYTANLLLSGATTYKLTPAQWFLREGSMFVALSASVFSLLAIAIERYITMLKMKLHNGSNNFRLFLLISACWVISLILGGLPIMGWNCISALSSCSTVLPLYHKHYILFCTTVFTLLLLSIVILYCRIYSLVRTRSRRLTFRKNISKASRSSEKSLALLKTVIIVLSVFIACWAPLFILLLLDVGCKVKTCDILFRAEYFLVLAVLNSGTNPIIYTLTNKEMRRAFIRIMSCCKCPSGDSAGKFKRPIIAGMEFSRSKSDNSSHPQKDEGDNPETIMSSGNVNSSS

Compound	EC50 (S1P1 receptor)	EC50 (S1P3 receptor)
CS(=O)(=O)c1cccc(-c2noc(-c3nnn(-c4ccccc4F)c3-c3ccncc3)n2)c1 [Example 52, 4-(1-(2-fluorophenyl)-4-{3-[3-(methylsulfonyl)phenyl]-1,2,4-oxadiazol-5-yl}-1H-1,2,3-triazol-5-yl)pyridine]	33 nM	> 20 µM
COc1ccccc1-c1noc(-c2nnn(-c3ccccc3F)c2-c2ccncc2)n1 [Example 40, 4-{1-(2-fluorophenyl)-4-[3-(2-methoxyphenyl)-1,2,4-oxadiazol-5-yl]-1H-1,2,3-triazol-5-yl}pyridine]	120 nM	> 20 µM
Fc1cc(F)cc(-c2noc(-c3nnn(-c4ccccc4F)c3-c3ccncc3)n2)c1 [Example 102, 4-[4-[3-(3,5-difluorophenyl)-1,2,4-oxadiazol-5-yl]-1-(2-fluorophenyl)-1H-1,2,3-triazol-5-yl]pyridine]	6 nM	0.149 µM
Fc1ccccc1-n1nnc(-c2nc(-c3ccc4[nH]ncc4c3)no2)c1-c1ccncc1 [Example 116, 5-{5-[1-(2-fluorophenyl)-5-pyridin-4-yl-1H-1,2,3-triazol-4-yl]-1,2,4-oxadiazol-3-yl}-1H-indazole]	4 nM	0.164 µM
COCc1c(-c2nc(-c3ccc4[nH]ncc4c3)no2)nnn1-c1ccccc1F [Example 87, 5-{5-[1-(2-fluorophenyl)-5-(methoxymethyl)-1H-1,2,3-triazol-4-yl]-1,2,4-oxadiazol-3-yl}-1H-indazole]	98 nM	> 20 µM
COc1cccc(-c2noc(-c3nnn(-c4ccccc4F)c3-c3ccncc3)n2)c1 [Example 51, 4-{1-(2-fluorophenyl)-4-[3-(3-methoxyphenyl)-1,2,4-oxadiazol-5-yl]-1H-1,2,3-triazol-5-yl}pyridine]	10 nM	0.741 µM
Cc1ccccc1-c1noc(-c2nnn(-c3ccccc3F)c2-c2ccncc2)n1 [Example 121, 4-{1-(2-fluorophenyl)-4-[3-(2-methylphenyl)-1,2,4-oxadiazol-5-yl]-1H-1,2,3-triazol-5-yl}pyridine]	13 nM	> 20 µM
CCc1c(-c2nc(-c3ccccc3)no2)nnn1-c1ccccc1F [Example 5, 5-[5-Ethyl-1-(2-fluorophenyl)-1H-1,2,3-triazole-4-yl]-3-phenyl-1,2,4-oxadiazole]	862 nM	> 30 µM
COCc1c(-c2nc(-c3ccccc3)no2)nnn1-c1ccccc1F [Example 15, 5-[1-(2-Fluorophenyl)-5-(methoxymethyl)-1H-1,2,3-triazole-4-yl]-3-phenyl-1,2,4-oxadiazole]	391 nM	> 30 µM
CCCCc1c(-c2nc(-c3ccccc3)no2)nnn1-c1ccccc1F [Example 17, 5-[5-Butyl-1-(2-fluorophenyl)-1H-1,2,3-triazole-4-yl]-3-phenyl-1,2,4-oxadiazole]	144 nM	4.9 µM
Fc1ccccc1-n1nnc(-c2nc(-c3ccccc3)no2)c1-c1ccccc1 [Example 14, 5-[1-(2-Fluorophenyl)-5-phenyl-1H-1,2,3-triazole-4-yl]-3-phenyl-1,2,4-oxadiazole]	38 nM	0.399 µM
COCCNCc1ccc(-c2noc(-c3nnn(-c4ccccc4F)c3-c3ccncc3)n2)cc1 [Example 114, N-(4-{5-[1-(2-fluorophenyl)-5-pyridin-4-yl-1H-1,2,3-triazol-4-yl]-1,2,4-oxadiazol-3-yl}benzyl)-2-methoxyethanamine]	50 nM	6.68 µM
O=C(O)C1CN(Cc2ccc(-c3noc(-c4nnn(-c5ccccc5F)c4-c4ccncc4)n3)cc2)C1 [Example 113, 1-(4-{5-[1-(2-fluorophenyl)-5-pyridin-4-yl-1H-1,2,3-triazol-4-yl]-1,2,4-oxadiazol-3-yl}benzyl)azetidine-3-carboxylic acid]	2 nM	1.37 µM
Fc1ccccc1-c1noc(-c2nnn(-c3ccccc3F)c2-c2ccccc2)n1 [Example 13, 3-(2-Fluorophenyl)-5-[1-(2-fluorophenyl)-5-phenyl-1H-1,2,3-triazole-4-yl]-1,2,4-oxadiazole]	29 nM	0.486 µM
COc1ccc(-c2noc(-c3nnn(-c4ccccc4F)c3-c3ccncc3)n2)cc1 [Example 48, 4-{1-(2-fluorophenyl)-4-[3-(4-methoxyphenyl)-1,2,4-oxadiazol-5-yl]-1H-1,2,3-triazol-5-yl}pyridine]	127 nM	10.4 µM
O=C(O)CCNCc1ccc(-c2noc(-c3nnn(-c4ccccc4F)c3-c3ccncc3)n2)cc1 [Example 127, N-(4-{5-[1-(2-fluorophenyl)-5-pyridin-4-yl-1H-1,2,3-triazol-4-yl]-1,2,4-oxadiazol-3-yl}benzyl)-beta-alanine]	1 nM	0.318 µM
CNCc1ccc(-c2noc(-c3nnn(-c4ccccc4F)c3-c3ccncc3)n2)cc1 [Example 129, 1-(4-{5-[1-(2-fluorophenyl)-5-pyridin-4-yl-1H-1,2,3-triazol-4-yl]-1,2,4-oxadiazol-3-yl}phenyl)-N-methylmethanamine]	10 nM	4.56 µM

Continued, values first:

EC50 (S1P1 receptor)	EC50 (S1P3 receptor)	Compound
206 nM	0.033 µM	Fc1ccc(F)c(-c2noc(-c3nnn(-c4ccccc4F)c3C3CCCC3)n2)c1 [Example 77, 5-[5-cyclopentyl-1-(2-fluorophenyl)-1H-1,2,3-triazol-4-yl]-3-(2,5-difluorophenyl)-1,2,4-oxadiazole]
–	> 30 µM	CCc1c(-c2nc(-c3cc(F)ccc3F)no2)nnn1-c1ccccc1F [Example 7, 3-(2,5-Difluorophenyl)-5-[5-ethyl-1-(2-fluorophenyl)-1H-1,2,3-triazole-4-yl]-1,2,4-oxadiazole]
95 nM	> 20 µM	Fc1ccc(F)c(-c2noc(-c3nnn(-c4ccccc4F)c3-c3cccnc3)n2)c1 [Example 26, 3-[4-[3-(2,5-Difluorophenyl)-1,2,4-oxadiazole-5-yl]-1-(2-fluorophenyl)-1H-1,2,3-triazole-5-yl]pyridine]
44 nM	7.25 µM	Fc1ccc(F)c(-c2noc(-c3nnn(-c4ccccc4F)c3-c3ccccn3)n2)c1 [Example 28, 2-[4-[3-(2,5-Difluorophenyl)-1,2,4-oxadiazole-5-yl]-1-(2-fluorophenyl)-1H-1,2,3-triazole-5-yl]pyridine]
744 nM	> 10 µM	COCc1c(-c2nc(-c3ccc(F)cc3F)no2)nnn1-c1ccccc1F [Example 8, 3-(2,4-Difluorophenyl)-5-[1-(2-fluorophenyl)-5-(methoxymethyl)-1H-1,2,3-triazole-4-yl]-1,2,4-oxadiazole]
7 nM	1.78 µM	Fc1ccc(F)c(-c2noc(-c3nnn(-c4ccccc4F)c3-c3ccncc3)n2)c1 [Example 31, 4-[4-[3-(2,5-Difluorophenyl)-1,2,4-oxadiazole-5-yl]-1-(2-fluorophenyl)-1H-1,2,3-triazole-5-yl]pyridine]
119 nM	13.3 µM	COCCc1c(-c2nc(-c3ccccc3F)no2)nnn1-c1ccccc1F [Example 49, 3-(2-fluorophenyl)-5-[1-(2-fluorophenyl)-5-(2-methoxyethyl)-1H-1,2,3-triazol-4-yl]-1,2,4-oxadiazole]
211 nM	> 30 µM	COCc1c(-c2nc(-c3ccccc3F)no2)nnn1-c1ccccc1F
20 nM	1.2 µM	Fc1ccccc1-c1noc(-c2nnn(-c3ccccc3F)c2-c2ccncc2)n1 [Example 32, 4-{1-(2-Fluorophenyl)-4-[3-(2-fluorophenyl)-1,2,4-oxadiazole-5-yl]-1H-1,2,3-triazole-5-yl}pyridine]
60 nM	> 20 µM	Fc1ccc(-c2noc(-c3nnn(-c4ccccc4F)c3-c3ccncc3)n2)cc1F [Example 97, 4-[4-[3-(3,4-difluorophenyl)-1,2,4-oxadiazol-5-yl]-1-(2-fluorophenyl)-1H-1,2,3-triazol-5-yl]pyridine]
561 nM	> 30 µM	CCc1c(-c2nc(-c3ccccc3F)no2)nnn1-c1ccccc1F [Example 6, 5-[5-Ethyl-1-(2-fluorophenyl)-1H-1,2,3-triazole-4-yl]-3-(2-fluorophenyl)-1,2,4-oxadiazole]
